Reference: PMC4211885 (PLoS ONE, 2014)

Assays:
Uninjected oocytes = assay: Direct-current response of uninjected oocytes (control); type: cell-based, Xenopus laevis; details: n = 5
Description: We first tested receptor-injected oocytes for the occurrence of a response to biogenic amines. Applications of tyramine, octopamine, or dopamine produced an inward ID, typically ranging between 50 nA and 500 nA, under a constant holding potential of −60 mV. […] The amplitude of tyramine evoked ID at concentrations below 10 µM was greater than octopamine or dopamine within the same oocyte (Figs. 2A and S2). […] Instead it would rise and then begin to decline prior to the removal of agonist (dotted line). However, at high concentrations, above 100 µM, ID appeared to approach a stable plateau (Fig. 2B).
(§1) Recordings were performed 1–3 days post-injection at room temperature (20–22°C). Currents were recorded under two-electrode voltage clamp using an Axoclamp 900a amplifier (Molecular Devices LLC, CA USA). A digidata 1440a analog to digital converter was used in conjunction with pCLAMP 10 software (Molecular Devices) for data acquisition and to generate voltage commands. For each step protocol or chemical application data were typically sampled at 5 KHz and filtered digitally at 1 KHz. For the duration of each experiment the current was also continuously sampled at 1 kHz using a separate minidigi 1A digitizer (Molecular Devices). Glass microelectrodes were pulled from filamented 1.2 mm thin wall borosilicate glass (World Precision Instruments, Sarasota, FL) using a Sutter Instruments P-97 puller. They were filled with 3 M KCl and had resistances of 0.8–2.0 MΩ. A silver chloride pellet immersed in 3 M KCl and connected to the bath via a 3% agar bridge made with 3 M KCl was used as the reference electrode.
Supplementary file pone.0111314.s001.tif: Figure S1 Direct-current (ID) responses are specifically evoked by agonists in oocytes injected with OA/TAMac only. […] The trace is representative of an experimental set of 5 oocytes. Additional uninjected oocytes were tested with various experimental sets throughout the course of this study. (B) A typical preliminary test of agonist sensitivity. Injection of OA/TAMac cRNA alone is sufficient to confer sensitivity to OA. […] Applications are approximately 30 seconds in the upper trace. (C) The response of clonidine (CN), synephrine (SN), and OA within a single OA/TAMac injected oocyte. […] All drugs are applied for 30 seconds each as indicated by black rectangles. Agonist evoked currents are measured within oocytes relative to the octopamine response at 50 µM. The comparison is made to OA because the amplitude of the tyramine response becomes small at concentrations above 10 µM. This is due to a mechanistically undefined process not seen with any other agonist we tested. Note that TA is the first compound applied to a naïve oocyte in this example. […] (TIF) Click here for additional data file.

OA/TAMac receptor = OA/TAMac receptor (Macrobrachium rosenbergii, UniProt D9U2B9); assay: Agonist-evoked direct-current (ID) in Xenopus oocytes injected with OA/TAMac cRNA, two-electrode voltage clamp; type: cell-based; details: for ID response amplitude (mean ± s.d.): 10 µM, 10 second focal application, OA/TAMac and CFTR co-injected, n = 11 oocytes; for EC50: voltage clamped at −60 mV, approximate, estimated graphically from plot, read-out: EC50 of transmitter evoked direct-current (ID), normalized I/Imax; for Spearman rank-order correlation (rS) between rise rate and peak amplitude of evoked ID: all responses of the concentration series of Figure 3C
OA/TAMac receptor, sequence (D9U2B9 entry or part of it): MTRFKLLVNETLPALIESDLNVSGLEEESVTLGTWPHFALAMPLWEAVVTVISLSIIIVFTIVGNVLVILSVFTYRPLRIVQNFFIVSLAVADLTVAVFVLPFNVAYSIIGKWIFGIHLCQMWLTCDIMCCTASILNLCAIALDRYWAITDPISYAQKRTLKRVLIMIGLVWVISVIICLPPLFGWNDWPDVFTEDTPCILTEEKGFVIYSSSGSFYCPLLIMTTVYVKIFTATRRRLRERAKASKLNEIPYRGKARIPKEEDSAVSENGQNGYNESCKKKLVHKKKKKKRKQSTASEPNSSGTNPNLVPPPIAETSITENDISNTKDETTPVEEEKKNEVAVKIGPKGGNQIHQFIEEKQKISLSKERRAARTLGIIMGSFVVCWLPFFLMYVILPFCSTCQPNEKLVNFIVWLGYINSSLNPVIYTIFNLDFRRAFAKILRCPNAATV
Text: We used Xenopus oocytes to express the prawn OA/TAMac receptor by injection of synthetic cRNA. The injection of foreign RNA into Xenopus oocytes typically induces the expression of multiple native chloride and potassium channels. Ligand evoked currents resulting from modulation of these channels have been used extensively in the characterization of heterologously expressed GPCRs. Oocytes are typically voltage clamped at a constant membrane potential around −60 mV and deviations in holding potential are measured. We refer to currents measured in this way as direct-currents (ID) (after) in order to distinguish them from the voltage-evoked transient current (ICl-T) described later.
Both flow rate and pulse duration were precisely controlled and comparisons were made relative to currents within single oocytes.
To characterize the dose dependence of ID, series of single transmitters were applied to different individual oocytes injected with OA/TAMac. Oocytes were voltage clamped at −60 mV and tyramine, (+/−)-octopamine, or dopamine were applied using 30 second perfusion-switched applications (see methods for more details).
as §1
Oocytes were continuously perfused at 1.5 mL/min either with ND 96 or test compounds dissolved in ND 96. Two types of application were used over the course of this study, a perfusion-switch or a focal application. In all cases solutions were delivered through a gravity fed system and switched using a computer controlled bank of pinch valves. Flow rate was regulated with a manual screw-type pinch valve.
For focal application a triple barrel pipette with three parallel independently switched channels was positioned about 1 mm from the surface of the oocyte, up-stream of a cross flow, at an approximate angle of 45 degrees (schematic shown in Fig. S8). Drugs were focally applied during continuous perfusion with ND 96.
In experiments where more than three drugs or concentrations were tested a precisely controlled 30 s perfusion-switch was used. Up to eight channels were connected to the bath via an 8-way manifold. There was an approximately 6–7 s delay for solutions to traverse the dead volume between the manifold and the bath.

[1] = 30 second perfusion-switched applications, −60 mV

| Structure (SMILES) | Response of uninjected oocytes (Uninjected oocytes) | Response of uninjected oocytes (Uninjected oocytes; listed as OA) | ID response amplitude (mean ± s.d.) (OA/TAMac receptor; −60 mV) [nA] | Mean ID response amplitude in the agonist set (OA/TAMac receptor; 50 µM, 30 second perfusion-switch, n = 6, standard deviation 32 nA) [nA] | EC50 (OA/TAMac receptor; 30 second perfusion-switch) [µM] | Concentration at which evoked inward currents became visible/apparent (OA/TAMac receptor; [1]) | Spearman rank-order correlation (rS) between rise rate and peak amplitude of evoked ID (OA/TAMac receptor) | Response of uninjected oocytes (Uninjected oocytes; listed as TA) | Concentration at which the response reached maximum amplitude (OA/TAMac receptor; [1]) |
| --- | --- | --- | --- | --- | --- | --- | --- | --- | --- |
| NCC(O)c1ccc(O)cc1 (racemic) [octopamine, (+/−)-octopamine] | no response | do not respond | 75±55 | 119 | ~21 | around 1 µM | 0.93 | – | – |
| NCCc1ccc(O)cc1 [tyramine] | no response | – | 229±152 | – | ~0.2 | around 0.1 µM | 0.52 | do not respond | around 10 µM |
